The nature of experiment [1]: Comparison of perceived cooling: second compound plus dimethyl sulfoxide vs. second compound alone (Table I). The class given is in vivo. The note with it: scale 0-10. The text has this:
is admixed with such “second compound(s),” the resulting mixture as stated, supra, has a highly intensified oral sensory perception effect, for example, a “highly intensified cooling effect” or a “highly intensified hot, burning effect.” Such effects are highly desirable in the use of certain oral care products such as mouthwashes, toothpastes and the like as set forth, supra. Thus, the following Table I sets forth a comparison of a “control” which is a “second compound” taken alone vs. the mixture of dimethyl sulfoxide with the said “second compound”: […]

A short description of experiment [2]: Perceived cooling in screening base: silica toothpaste base with 0.4% saccharin (Table II). It is filed as in vivo. The text has this: The following Table II sets forth the effect in a screening base, in this case: silica toothpaste base containing 0.4% saccharin of various “second compounds” in admixture with dimethyl sulfoxide, as follows: […]
[3] abbreviates: second compound 30 ppm + DMSO 0.1 ppm.
Where [4] appears, read: second compound 30 ppm + DMSO 100 ppm.
Setting [5] is: second compound alone 30 ppm (control for DMSO 0.1 ppm line).
The mark [6] stands for this setting: second compound alone 30 ppm (control for DMSO 100 ppm line).
The mark [7] stands for this setting: scaled 1-10, 2nd compound 30 ppm + DMSO 0.1 ppm.
[8] abbreviates: scaled 1-10, 2nd compound 30 ppm + DMSO 1 ppm.
The mark [9] stands for this setting: scaled 1-10, 2nd compound alone 30 ppm (line of DMSO 0.1 ppm).
The mark [10] stands for this setting: scaled 1-10, 2nd compound alone 30 ppm (line of DMSO 1 ppm).

Turning to `CC1CCC(C(C)C)C(O)C1` (centres unmarked) [Menthol, menthol], the “Effect of Mixture vs. Control, perceived cooling: mixture” value is given as 8 in experiment [1] (second compound 5 ppm + DMSO 0.1 ppm), 9 in experiment [1] (second compound 10 ppm + DMSO 1 ppm), 9.5 in experiment [1] (second compound 30 ppm + DMSO 5 ppm) and 8.7 in experiment [1] (second compound 100 ppm + DMSO 10 ppm). The “Effect of Mixture vs. Control, perceived cooling: control” value amounted to 1.5 in experiment [1] (second compound alone 5 ppm (control for DMSO 0.1 ppm line)), 1.3 in experiment [1] (second compound alone 10 ppm (control for DMSO 1 ppm line)), 1.1 in experiment [1] (second compound alone 30 ppm (control for DMSO 5 ppm line)) and 2 in experiment [1] (second compound alone 100 ppm (control for DMSO 10 ppm line)). Moreover, in experiment [2] (scaled 1-10, 2nd compound 0.50% + DMSO 1 ppm), the “Observed Effect Scaled at 1-10 vs. 2nd Compound Alone, perceived cooling: with DMSO” value is given as 8.2. Further, the “Observed Effect Scaled at 1-10 vs. 2nd Compound Alone, perceived cooling: 2nd compound alone” value in experiment [2] (scaled 1-10, 2nd compound alone 0.50% (line of DMSO 1 ppm)) was found to be 1.6.

Take `CC1CCC(C(C)C)C(OC(=O)C(C)O)C1` (centres unmarked) [Menthyl lactate]: the “Effect of Mixture vs. Control, perceived cooling: mixture” value in experiment [1] (setting [3]) came out at 8.4; in experiment [1] (setting [4]), 8.2. The “Effect of Mixture vs. Control, perceived cooling: control” value in experiment [1] (setting [5]) is on record as 1.7; in experiment [1] (setting [6]) it was 2.1.

As to `CC1CCC(C(C)C)C(OC(=O)CCC(=O)O)C1` (centres unmarked) [Monomenthyl succinate, menthyl succinate], the results for the “Effect of Mixture vs. Control, perceived cooling: mixture” value in experiment [1] (second compound 100 ppm + DMSO 0.1 ppm) and in experiment [1] (second compound 100 ppm + DMSO 100 ppm) were 9.1 and 8.7, respectively. Besides, the “Effect of Mixture vs. Control, perceived cooling: control” value was determined as 3.8 in experiment [1] (second compound alone 100 ppm (control for DMSO 0.1 ppm line)) and 2.5 in experiment [1] (second compound alone 100 ppm (control for DMSO 100 ppm line)). The “Observed Effect Scaled at 1-10 vs. 2nd Compound Alone, perceived cooling: with DMSO” value came to 9.0 in experiment [2] (scaled 1-10, 2nd compound 100 ppm + DMSO 0.1 ppm) and 9.2 in experiment [2] (scaled 1-10, 2nd compound 100 ppm + DMSO 1 ppm). Besides, the “Observed Effect Scaled at 1-10 vs. 2nd Compound Alone, perceived cooling: 2nd compound alone” value in experiment [2] (scaled 1-10, 2nd compound alone 100 ppm (line of DMSO 0.1 ppm)) is reported as 3.5; in experiment [2] (scaled 1-10, 2nd compound alone 100 ppm (line of DMSO 1 ppm)) it was 3.7.

Take `CCNC(=O)C1CC(C)CCC1C(C)C` (centres unmarked) [WS 3 ®]: the results for the “Effect of Mixture vs. Control, perceived cooling: mixture” value in experiment [1] (setting [3]) and in experiment [1] (setting [4]) were 9.3 and 9.0, respectively. The “Effect of Mixture vs. Control, perceived cooling: control” value in experiment [1] (setting [5]) amounted to 1.5; in experiment [1] (setting [6]) it was 1.6. Besides, the results for the “Observed Effect Scaled at 1-10 vs. 2nd Compound Alone, perceived cooling: with DMSO” value in experiment [2] (setting [7]) and in experiment [2] (setting [8]) were 9.1 and 9.0, respectively. For the same compound, the “Observed Effect Scaled at 1-10 vs. 2nd Compound Alone, perceived cooling: 2nd compound alone” value in experiment [2] (setting [9]) stood at 1.7; in experiment [2] (setting [10]), 1.6.

As for `CCC(C)C(C(=O)NC(C)C)C(C)C` (centres unmarked) [WS 23 ®], the “Effect of Mixture vs. Control, perceived cooling: mixture” value in experiment [1] (setting [3]) is 9.6; in experiment [1] (setting [4]) it was 9.2. Further, the results for the “Effect of Mixture vs. Control, perceived cooling: control” value in experiment [1] (setting [5]) and in experiment [1] (setting [6]) were 2.4 and 2.2, respectively. Also, the “Observed Effect Scaled at 1-10 vs. 2nd Compound Alone, perceived cooling: with DMSO” value in experiment [2] (setting [7]) came out at 9.8; in experiment [2] (setting [8]) it was 9.9. Further, the figures for the “Observed Effect Scaled at 1-10 vs. 2nd Compound Alone, perceived cooling: 2nd compound alone” value in experiment [2] (setting [9]) and in experiment [2] (setting [10]) were 2.4 and 2.6, respectively.

The values are drawn from US6365215B1, “Oral sensory perception-affecting compositions containing dimethyl sulfoxide, complexes thereof and salts thereof” (International Flavors & Fragrances Inc., priority 2000, dated 2002).
